{
  "source": "patent US6436936B1",
  "about": "“Methods and compositions for treating disorders, using optically pure (+) zopiclone” (Sepracor Inc., priority 1991, dated 2002)",
  "origin": "cited, not measured here",
  "data": [
    {"test_system": "mice", "settings": "reference agents, 3 per group, ten parameters scored, total score <40 of 60 denotes behavioral depression", "units": {"ED100": "mg/kg"}, "values": [
      {"compound": "CN1C(=O)CN=C(c2ccccc2)c2cc(Cl)ccc21", "note": "[diazepam]", "ED100": 50},
      {"compound": "CCC1(c2ccccc2)CCC(=O)NC1=O", "note": "(stereo not drawn) [glutethimide]", "ED100": 300},
      {"compound": "O=C(CCCN1CCC(O)(c2ccc(Cl)cc2)CC1)c1ccc(F)cc1", "note": "[haloperidol]", "ED100": 10},
      {"compound": "CCCC(C)(COC(N)=O)COC(N)=O", "note": "[meprobamate]", "ED100": 300},
      {"compound": "CCCC(C)C1(CC)C(=O)NC(=O)NC1=O", "note": "(stereo not drawn) [pentobarbital]", "ED100": 100},
      {"compound": "COC(=O)[C@H]1[C@H]2C[C@@H]3c4[nH]c5cc(OC)ccc5c4CCN3C[C@H]2C[C@@H](OC(=O)c2cc(OC)c(OC)c(OC)c2)[C@@H]1OC", "note": "[reserpine]", "ED100": 50}
    ]}
  ]
}
